# Experimental data as given in PubChem BioAssay (NCI).
#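 Each compound was tested at five concentrations against cells in 96-well plates for 48 hours. The concentration for 50% growth inhibition is given as GI50. TGI marks complete inhibition of growth.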
# Experiments:
# Experiment in all cases: NCI-60 cell line screen, 48 h
# UACC-62 melanoma = test system: UACC-62 melanoma
# NCI-H23 lung = test system: NCI-H23 lung
# OVCAR-8 ovarian = test system: OVCAR-8 ovarian
# SK-MEL-5 melanoma = test system: SK-MEL-5 melanoma
# LOX IMVI melanoma = test system: LOX IMVI melanoma
# MOLT-4 leukemia = test system: MOLT-4 leukemia
# MDA-MB-231 breast = test system: MDA-MB-231 breast
# MDA-MB-435 = test system: MDA-MB-435
# PC-3 prostate = test system: PC-3 prostate
# SR leukemia = test system: SR leukemia
# SW-620 colon = test system: SW-620 colon
# HOP-62 NSCLC = test system: HOP-62 NSCLC
# SF-268 CNS = test system: SF-268 CNS
# OVCAR-5 ovarian = test system: OVCAR-5 ovarian
# UO-31 renal = test system: UO-31 renal
# ACHN renal = test system: ACHN renal
# M14 melanoma = test system: M14 melanoma
# COLO 205 colon = test system: COLO 205 colon
# MALME-3M melanoma = test system: MALME-3M melanoma
# UACC-257 melanoma = test system: UACC-257 melanoma
# HCC-2998 colon = test system: HCC-2998 colon
# SF-295 CNS = test system: SF-295 CNS
# RPMI-8226 leukemia = test system: RPMI-8226 leukemia
# 786-0 renal = test system: 786-0 renal
# NCI/ADR-RES ovarian = test system: NCI/ADR-RES ovarian
# HCT-15 colon = test system: HCT-15 colon
# OVCAR-3 ovarian = test system: OVCAR-3 ovarian
# IGROV1 ovarian = test system: IGROV1 ovarian
# NCI-H460 lung = test system: NCI-H460 lung
# NCI-H522 lung = test system: NCI-H522 lung
# SF-539 CNS = test system: SF-539 CNS
# SNB-75 CNS = test system: SNB-75 CNS
# HCT-116 colon = test system: HCT-116 colon
# CAKI-1 renal = test system: CAKI-1 renal
# KM12 colon = test system: KM12 colon
# SK-MEL-2 melanoma = test system: SK-MEL-2 melanoma
# U251 CNS = test system: U251 CNS
# A549 NSCLC = test system: A549 NSCLC
# SK-MEL-28 melanoma = test system: SK-MEL-28 melanoma
# HOP-92 NSCLC = test system: HOP-92 NSCLC
# HS 578T breast = test system: HS 578T breast
# NCI-H226 lung = test system: NCI-H226 lung
# DU-145 prostate = test system: DU-145 prostate
# T-47D breast = test system: T-47D breast
# TK-10 renal = test system: TK-10 renal
# OVCAR-4 ovarian = test system: OVCAR-4 ovarian
# HL-60(TB) leukemia = test system: HL-60(TB) leukemia
# CCRF-CEM leukemia = test system: CCRF-CEM leukemia
# A498 renal = test system: A498 renal
# K-562 leukemia = test system: K-562 leukemia
# BT-549 breast = test system: BT-549 breast
# SN12C renal = test system: SN12C renal
# EKVX NSCLC = test system: EKVX NSCLC
# RXF 393 renal = test system: RXF 393 renal
# HT29 colon = test system: HT29 colon
# SK-OV-3 ovarian = test system: SK-OV-3 ovarian
# MCF7 breast = test system: MCF7 breast
compound,measurement,setting,value
CCCCCCCCc1ccc(OCCOCC[N+](C)(C)CC)cc1 (tested in a mixture with another compound),GI50,UACC-62 melanoma,1.88 µM
same,TGI,UACC-62 melanoma,5.48 µM
same,GI50,NCI-H23 lung,3.42 µM
same,TGI,NCI-H23 lung,15.8 µM
same,GI50,OVCAR-8 ovarian,3.81 µM
same,TGI,OVCAR-8 ovarian,15.4 µM
same,GI50,SK-MEL-5 melanoma,1.45 µM
same,TGI,SK-MEL-5 melanoma,3.06 µM
same,GI50,LOX IMVI melanoma,2.7 µM
same,TGI,LOX IMVI melanoma,13.7 µM
same,GI50,MOLT-4 leukemia,4.39 µM
same,TGI,MOLT-4 leukemia,18.2 µM
same,GI50,MDA-MB-231 breast,2.75 µM
same,TGI,MDA-MB-231 breast,11.3 µM
same,GI50,MDA-MB-435,2.91 µM
same,TGI,MDA-MB-435,11.2 µM
same,GI50,PC-3 prostate,3.12 µM
same,TGI,PC-3 prostate,12.6 µM
same,GI50,SR leukemia,3 µM
same,TGI,SR leukemia,14.3 µM
same,GI50,SW-620 colon,3.97 µM
same,TGI,SW-620 colon,16.1 µM
same,GI50,HOP-62 NSCLC,5 µM
same,TGI,HOP-62 NSCLC,17.2 µM
same,GI50,SF-268 CNS,4.22 µM
same,TGI,SF-268 CNS,16.9 µM
same,GI50,OVCAR-5 ovarian,7.5 µM
same,TGI,OVCAR-5 ovarian,20.9 µM
same,GI50,UO-31 renal,17.5 µM
same,TGI,UO-31 renal,45.4 µM
same,GI50,ACHN renal,15.6 µM
same,TGI,ACHN renal,30.4 µM
same,GI50,M14 melanoma,4.07 µM
same,TGI,M14 melanoma,17.2 µM
same,GI50,COLO 205 colon,1.59 µM
same,TGI,COLO 205 colon,3.21 µM
same,GI50,MALME-3M melanoma,1.93 µM
same,TGI,MALME-3M melanoma,6.44 µM
same,GI50,UACC-257 melanoma,2.34 µM
same,TGI,UACC-257 melanoma,6.8 µM
same,GI50,HCC-2998 colon,3.74 µM
same,TGI,HCC-2998 colon,13.6 µM
same,GI50,SF-295 CNS,13 µM
same,TGI,SF-295 CNS,27 µM
same,GI50,RPMI-8226 leukemia,2.03 µM
same,TGI,RPMI-8226 leukemia,6.82 µM
same,GI50,786-0 renal,14.2 µM
same,TGI,786-0 renal,28.8 µM
same,GI50,NCI/ADR-RES ovarian,> 100 µM
same,TGI,NCI/ADR-RES ovarian,> 100 µM
same,GI50,HCT-15 colon,24.8 µM
same,TGI,HCT-15 colon,> 100 µM
same,GI50,OVCAR-3 ovarian,2.79 µM
same,TGI,OVCAR-3 ovarian,12.5 µM
same,GI50,IGROV1 ovarian,3.74 µM
same,TGI,IGROV1 ovarian,14.7 µM
same,GI50,NCI-H460 lung,3.94 µM
same,TGI,NCI-H460 lung,14.5 µM
same,GI50,NCI-H522 lung,2.18 µM
same,TGI,NCI-H522 lung,9.84 µM
same,GI50,SF-539 CNS,3.97 µM
same,TGI,SF-539 CNS,15 µM
same,GI50,SNB-75 CNS,2.12 µM
same,TGI,SNB-75 CNS,9 µM
same,GI50,HCT-116 colon,3.84 µM
same,TGI,HCT-116 colon,14.8 µM
same,GI50,CAKI-1 renal,54.8 µM
same,TGI,CAKI-1 renal,> 100 µM
same,GI50,KM12 colon,3.72 µM
same,TGI,KM12 colon,13.8 µM
same,GI50,SK-MEL-2 melanoma,2.56 µM
same,TGI,SK-MEL-2 melanoma,8.53 µM
same,GI50,U251 CNS,1.8 µM
same,TGI,U251 CNS,12.3 µM
same,GI50,A549 NSCLC,9.99 µM
same,TGI,A549 NSCLC,23.1 µM
same,GI50,SK-MEL-28 melanoma,3.25 µM
same,TGI,SK-MEL-28 melanoma,15.4 µM
same,GI50,HOP-92 NSCLC,1.17 µM
same,TGI,HOP-92 NSCLC,4.51 µM
same,GI50,HS 578T breast,3.2 µM
same,TGI,HS 578T breast,16.6 µM
same,GI50,NCI-H226 lung,4.31 µM
same,TGI,NCI-H226 lung,19.2 µM
same,GI50,DU-145 prostate,8.09 µM
same,TGI,DU-145 prostate,22.8 µM
same,GI50,T-47D breast,3.14 µM
same,TGI,T-47D breast,13.7 µM
same,GI50,TK-10 renal,14.8 µM
same,TGI,TK-10 renal,29.1 µM
same,GI50,OVCAR-4 ovarian,1.66 µM
same,TGI,OVCAR-4 ovarian,10.8 µM
same,GI50,HL-60(TB) leukemia,1.47 µM
same,TGI,HL-60(TB) leukemia,4.85 µM
same,GI50,CCRF-CEM leukemia,3.2 µM
same,TGI,CCRF-CEM leukemia,15.9 µM
same,GI50,A498 renal,9.16 µM
same,TGI,A498 renal,22 µM
same,GI50,K-562 leukemia,3.06 µM
same,TGI,K-562 leukemia,15.4 µM
same,GI50,BT-549 breast,3.03 µM
same,TGI,BT-549 breast,9.8 µM
same,GI50,SN12C renal,3.07 µM
same,TGI,SN12C renal,11.9 µM
same,GI50,EKVX NSCLC,4.6 µM
same,TGI,EKVX NSCLC,18.7 µM
same,GI50,RXF 393 renal,10.5 µM
same,TGI,RXF 393 renal,23.4 µM
same,GI50,HT29 colon,3.1 µM
same,TGI,HT29 colon,13.5 µM
same,GI50,SK-OV-3 ovarian,7.74 µM
same,TGI,SK-OV-3 ovarian,20.2 µM
same,GI50,MCF7 breast,3.05 µM
same,TGI,MCF7 breast,12.6 µM
